The test system of assay [1] is H292 NSCLC cells. The experiment in a line: Annexin V-FITC/PI double staining flow cytometry, H292. The assay is classed as cell-based, human. To be noted: H292, 7 h; statement for 1 at 20 µM. On the procedure:
(§1) Apoptosis cell death was investigated following the manufacturer's protocol (ImmunoTools, Friesoythe, Germany) using FITC–labeled Annexin V/PI. Treated cells was cultured overnight in 24-well plates at a density of 5 × 10^4 cells/well. Subsequently, cells were treated with various concentrations of 1, and 3b (0, 0.1, 1, 5, 10, and 20 µM) for 7 h. After treatment, cells were collected, washed with cold PBS, and then suspended in binding buffer. Each cell suspension was stained with 2.5 µL of annexin V-FITC and 1 µL of PI. The mixture was vortexed, then incubated for 15 min at room temperature. Guava easyCyte flow cytometer (EMD Millipore, Hayward, CA, USA) was utilized to detect live, apoptotic, and necrotic cells. The modes of cell death were classified as necrotic (PI+), and apoptotic cell death, divided into early apoptotic (PI (-) Annexin-V (+)) and late apoptotic (PI (+) Annexin-V (+)).

Assay [2] has as its system H292 non-small-cell lung cancer cell line. As to the kind of experiment: cells. To be noted: Homo sapiens, NCI-H292, H292, MTT. The assay is classed as cell-based. The protocol: (§2) The in vitro cytotoxicity of all the semisynthesized esters and their precursors against H292 and H460 human NSCLC cell lines was analyzed based on the mitochondrial dehydrogenase activity via the MTT assay[43] (Table 1). The compounds were tested at doses of 1–250 nM. Cisplatin and doxorubicin, which are the standard chemotherapeutic drugs for the treatment of NSCLC, were used as positive controls. […] However, the extended use of 1 is limited by the concerns for unwanted necrosis, which is an unprogrammed form of cell death caused by the presence of two quinone moieties. […] The IC50 values of the 5-O-ester derivatives 3a, 3b, 3d, 3h, 3i, and 3k were in the same range as the mother compound 1.
(§3) The in vitro cytotoxicity of compounds 3a–3o, 4a, and 4b was determined against the H292 and H460 NSCLC cell lines by the MTT colorimetric assay. Each compound was dissolved in DMSO to prepare a 10 mM stock solution. Both the H292 and H460 cells were cultured in RPMI 1640 medium supplemented with 2 mM L-glutamine, 10% FBS, and 100 units/mL of penicillin–streptomycin at 37 °C under 5% CO2. The NSCLC cells were trypsinized and seeded with a density of 5 × 10^3 cells/well in a 96-well plate, followed by overnight incubation. Serial dilutions of the test compounds ranging from 1 to 250 nM were prepared in the presence of DMSO (< 0.2% v/v). […] After incubation, formazan crystals were solubilized by adding 100 µL of DMSO, and their absorbance was measured at 570 nm by a spectrophotometric microtiter plate reader (PerkinElmer Victor 3 1420 Multilabel Plate Counter). Cell viability was calculated as the percentage of nontreated control cells. The mean IC50 values were obtained from three independent experiments. Each experiment was conducted in triplicate with at least five concentrations of the tested compounds. The GraphPad Prism software (version 5) was used to calculate the average IC50 and standard deviation (S.D.) values for each experiment. Cisplatin and doxorubicin were used as the positive controls, while 0.2% DMSO served as the negative control.

Assay [3] concerns H460 non-small-cell lung cancer cell line. As to the kind of experiment: cells. The class given is cell-based. The conditions noted are these: Homo sapiens, NCI-H460, H460, MTT. On the procedure: as §2, §3
Assay [4] concerns human keratinocyte (HaCaT) cell line. The experiment in a line: MTT cell viability on normal cell line HaCaT. The assay is classed as cell-based. To be noted: Homo sapiens, 24 h, read-out: IC50 ± S.D. HaCaT. The protocol:
(§4) DP and BEAS-2B were seeded into 96-well plates at densities of 1 × 10^4 cells per well, while HaCaT cells were seeded at densities of 5 × 10^3 cells per well. The cells were allowed to adhere for 24 h. Subsequently, the cells were treated with various concentrations of compounds 3a–3o, 4a, and 4b at 72 h for DP cells and at 24 h for HaCaT and BEAS-2B cells. After the treatment period, cells were incubated with 0.5 mg/ml of MTT for 2 h. The resulting MTT product was measured at 570 nm using a spectrophotometric microplate reader. Cell viability was calculated by comparing the optical density (OD) measurements to those of the untreated control, and the results were expressed as a percentage.

Assay [5] has as its system non-tumorigenic bronchial epithelial (BEAS-2B) cell line. The experiment in a line: MTT cell viability on normal cell line BEAS-2B. The assay is classed as cell-based. To be noted: Homo sapiens, BEAS-2B normal cell line, 24 h, read-out: IC50 ± S.D. BEAS-2B. On the procedure:
as §4

Assay [6] has as its system H460 NSCLC cells. The experiment in a line: Annexin V-FITC/PI double staining flow cytometry, H460. The class given is cell-based, human. To be noted: H460, 7 h; statement for 1 at 20 µM. On the procedure:
as §1
In general terms: In flow cytometry, cells or beads pass a laser one at a time.

Assay [7] relates to dermal papilla (DP) cell line. The experiment in a line: MTT cell viability on normal cell line DP. The assay is classed as cell-based. The conditions noted are these: 72 h. The protocol: as §4
The subject of assay [8] is H460 NSCLC cells. The experiment in a line: Hoechst 33342/PI nuclear co-staining apoptosis and accidental necrosis assay, H460. The class given is cell-based, human. To be noted: cisplatin-sensitive H460, 7 h, 0–20 µM. On the procedure: (§5) The anti-proliferative activity of compounds 1 and 3b against H292 and H460 cells were assessed across a range of concentrations (0–20 µM) under treatment at 10 and 24 h. […] The cytotoxic effect of 3b was closely resembled that of the parental compound 1 after 24 h treatment. According to their cytotoxic profiles at short treatment duration, the NSCLC cell lines were treated with various concentrations (0, 0.1, 1, 5, 10, and 20 µM) of compounds 1 and 3b, followed by Hoechst 33342 and PI staining to visualize morphological changes by fluorescence microscopy (Fig. 4C–F). The bright blue fluorescence of Hoechst 33342 indicated apoptosis, characterized by DNA condensation and fragmentation. In contrast, the red fluorescence emitted by propidium iodide (PI) indicated necrotic cell death. The percentage of apoptotic and necrotic cells was calculated based on the stained image.
(§6) NSCLC cells (H292 and H460) were seeded into a 96-well plate at a density of 1 × 10^4 cells/well for 24 h. Subsequently, the cells were treated with several concentrations of compounds 1 and 3b (0–20 µM) for 7 h. […] Visualization and imaging of the stained cells were carried out using a fluorescence microscope (Nikon ECLIPSE Ts2, Tokyo, Japan). […] The percentage of cell death was analyzed and reported.

The test system of assay [9] is H292 NSCLC cells. As to the kind of experiment: Hoechst 33342/PI nuclear co-staining apoptosis and accidental necrosis assay, H292. The assay is classed as cell-based, human. The conditions noted are these: cisplatin-resistant H292, 7 h, 0–20 µM; statement for 1 at the highest concentration (20 µM). The protocol: as §5, §6
Setting [10] is: 10 h, 0–20 µM, read-out: IC50 ± S.D. H292 10 h.
[11] abbreviates: 24 h, 0–20 µM, read-out: IC50 ± S.D. H292 24 h.
Where [12] appears, read: 72 h, read-out: IC50 ± S.D. H292.
[13] abbreviates: 10 h, 0–20 µM, read-out: IC50 ± S.D. H460 10 h.
Setting [14] is: 24 h, 0–20 µM, read-out: IC50 ± S.D. H460 24 h.
Setting [15] is: 72 h, read-out: IC50 ± S.D. H460.

Read-outs that look alike come from different tables or passages of the source.

Usually IC50 stands for the point on the concentration scale where inhibition reaches its midpoint.

Turning to `C/C=C(/C)C(=O)OC[C@H]1C2=C(C[C@H]3[C@H]4C5=C(C[C@@H]([C@H](C#N)N13)N4C)C(=O)C(C)=C(OC)C5=O)C(=O)C(C)=C(OC)C2=O` [Compound 1, Renieramycin M], the “Mode of cell death by annexin V-FITC/PI flow cytometric analysis” value was “necrotic cell death in both H292 and H460 cell lines in conjugation with late apoptosis” in [1]; “necrotic cell death in both H292 and H460 cell lines in conjugation with late apoptosis” in assay [6]. Besides, the IC50 in [2] (setting [10]) came out at 4920 ± 3140 nM; in assay [2] (setting [11]), 3240 ± 800 nM; in [2] (setting [12]), 34.4 ± 1.7 nM; in assay [3] (setting [13]), 12000 ± 2730 nM; in [3] (setting [14]) it was 4130 ± 1000 nM; in assay [3] (setting [15]) it was 35.6 ± 1.82 nM. For the same compound, the IC50 in assay [4] came to 8.01 ± 0.53 nM; in assay [5] it was 75 ± 9.77 nM; in [7], 7.07 ± 1.5 nM. The “Mode of cell death (apoptosis / accidental necrosis) by Hoechst 33342/PI staining” value in assay [8] is “unwanted necrosis was observed in a dosed-dependent manner”; in assay [9], “induced both apoptosis and accidental necrosis”.
Turning to `C/C=C(/C)C(=O)OC[C@H]1c2c(c(OC(=O)CC)c(C)c3c2OCO3)C[C@H]2[C@H]3C4=C(C[C@@H]([C@H](C#N)N12)N3C)C(=O)C(C)=C(OC)C4=O` [Compound 3b, 5-O-(3-propanoyl) ester of renieramycin T], the “Mode of cell death by annexin V-FITC/PI flow cytometric analysis” value in [1] and in assay [6] was “early apoptosis with minimal necrosis” each time. Moreover, the IC50 in [2] (setting [10]) amounted to 17600 ± 6580 nM; in assay [2] (setting [11]), 4140 ± 840 nM; in assay [2] (setting [12]), 33.4 ± 0.87 nM; in assay [3] (setting [13]), 18800 ± 400 nM; in assay [3] (setting [14]), 7320 ± 520 nM; in [3] (setting [15]) it was 33.9 ± 1.95 nM. Further, the values for the IC50 in assay [4], in assay [5] and in assay [7] were 33.7 ± 9.43 nM, 90.2 ± 9.49 nM and 23.6 ± 0.65 nM, respectively. Besides, the entries for the “Mode of cell death (apoptosis / accidental necrosis) by Hoechst 33342/PI staining” value in assay [8] and in assay [9] were “induced apoptosis with minimal necrosis” and “morphological apoptosis with no detectable necrotic cells”, respectively.
For the compound `C/C=C(/C)C(=O)OC[C@H]1c2c(c(OC(=O)[C@H](C)NC(=O)OC(C)(C)C)c(C)c3c2OCO3)C[C@H]2[C@H]3C4=C(C[C@@H]([C@H](C#N)N12)N3C)C(=O)C(C)=C(OC)C4=O` [Compound 3d, 5-O-(N-Boc-L-alanine)-renieramycin T], the IC50 in assay [2] (setting [12]) is 39.5 ± 1.18 nM; in assay [3] (setting [15]), 33 ± 1.55 nM; in assay [4], 58.5 ± 6.68 nM; in assay [5], 232 ± 26.1 nM; in [7], 25.8 ± 1.05 nM.

These data come from article PMC10700347, “Semisynthesis of 5-O-ester derivatives of renieramycin T and their cytotoxicity against non-small-cell lung cancer cell lines” (Scientific Reports, 2023).
